Measurements published in PubChem BioAssay AID1963826 (Molecular Pharmacology Branch, DTP, NCI, 2024).

Tested on: 926638-142-R-J1-PDC complex spheroid viability
Assay: Anticancer human tumor 926638-142-R-J1-PDC patient-derived endometrial carcinoma cell line growth inhibition [POLQ]
Conditions: for IC50: curve of first compound; for viability, T/C: stronger effect = lower value; active means viability on the fitted dose curve at most 10% of control; inactive means the rest
In short: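 Growth inhibition in 3D: complex spheroids (tumor PDC, HUVEC, MSC) treated with POLQ inhibitor combinations; where Cmax unknown, highest tested concentration 10 microM, except SN-38 at 1 microM.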

[1] = second compound 0.0316 µM, first compound 0.0316 µM
[2] = second compound 0.0316 µM, first compound 0.1 µM
[3] = second compound 0.0316 µM, first compound 0.316 µM
[4] = second compound 0.0316 µM, first compound 1 µM
[5] = second compound 0.0316 µM, first compound 3.16 µM
[6] = second compound 0.0316 µM, first compound 10 µM
[7] = second compound 0.1 µM, first compound 0.0316 µM
[8] = second compound 0.1 µM, first compound 0.1 µM
[9] = second compound 0.1 µM, first compound 0.316 µM
[10] = second compound 0.1 µM, first compound 1 µM
[11] = second compound 0.1 µM, first compound 3.16 µM
[12] = second compound 0.1 µM, first compound 10 µM
[13] = second compound 0.316 µM, first compound 0.0316 µM
[14] = second compound 0.316 µM, first compound 0.1 µM
[15] = second compound 0.316 µM, first compound 0.316 µM
[16] = second compound 0.316 µM, first compound 1 µM
[17] = second compound 0.316 µM, first compound 3.16 µM
[18] = second compound 0.316 µM, first compound 10 µM
[19] = second compound 1 µM, first compound 0.0316 µM
[20] = second compound 1 µM, first compound 0.1 µM
[21] = second compound 1 µM, first compound 0.316 µM
[22] = second compound 1 µM, first compound 1 µM
[23] = second compound 1 µM, first compound 3.16 µM
[24] = second compound 1 µM, first compound 10 µM
[25] = second compound 3.16 µM, first compound 0.0316 µM
[26] = second compound 3.16 µM, first compound 0.1 µM
[27] = second compound 3.16 µM, first compound 0.316 µM
[28] = second compound 3.16 µM, first compound 1 µM
[29] = second compound 3.16 µM, first compound 3.16 µM
[30] = second compound 3.16 µM, first compound 10 µM
[31] = second compound 10 µM, first compound 0.0316 µM
[32] = second compound 10 µM, first compound 0.1 µM
[33] = second compound 10 µM, first compound 0.316 µM
[34] = second compound 10 µM, first compound 1 µM
[35] = second compound 10 µM, first compound 3.16 µM
[36] = second compound 10 µM, first compound 10 µM
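Further: spheroids exposed to drugs for one week before readout.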
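Wherever viability, T/C is given: percent viability relative to DMSO vehicle control wells set as 100%.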

CC1COCCN1c1cc(C2(S(C)(=N)=O)CC2)nc(-c2ccnc3[nH]ccc23)n1 (stereo unspecified) + Cc1cccc(N(C)C(=O)C2C(O)CCN2c2nc(C)cc(C(F)(F)F)c2C#N)c1
4.39 µM: IC50 (second compound 3.16 µM)
4.05 µM: IC50 (second compound 10 µM)
5.51 µM: IC50 (second compound 0.1 µM)
4.7 µM: IC50 (second compound 0.316 µM)
4.96 µM: IC50 (second compound 1 µM)
4.55 µM: IC50 (second compound 0.0316 µM)
inactive: viability, T/C [1] 117% | viability, T/C [2] 93.9% | viability, T/C [3] 93.8% | viability, T/C [4] 101% | viability, T/C [5] 59.2% | viability, T/C [6] 30.1% | viability, T/C [7] 104% | viability, T/C [8] 91.2% | viability, T/C [9] 100% | viability, T/C [10] 81.2% | viability, T/C [11] 76.2% | viability, T/C [12] 25.8% | viability, T/C [13] 107% | viability, T/C [14] 90.9% | viability, T/C [15] 98.6% | viability, T/C [16] 79.5% | viability, T/C [17] 60.7% | viability, T/C [18] 29.7% | viability, T/C [19] 117% | viability, T/C [20] 101% | viability, T/C [21] 96.4% | viability, T/C [22] 110% | viability, T/C [23] 60.5% | viability, T/C [24] 33.6% | viability, T/C [25] 91.6% | viability, T/C [26] 117% | viability, T/C [27] 95.2% | viability, T/C [28] 103% | viability, T/C [29] 59% | viability, T/C [30] 27.4% | viability, T/C [31] 80.4% | viability, T/C [32] 112% | viability, T/C [33] 87.8% | viability, T/C [34] 89% | viability, T/C [35] 56.7% | viability, T/C [36] 25.5%

CCc1cc2c(N3CCc4c(cc(Cn5ccnc5)cc4-c4cn(C)nc4C(F)(F)F)C3=O)ccnc2c(OC)n1 + Cc1cccc(N(C)C(=O)C2C(O)CCN2c2nc(C)cc(C(F)(F)F)c2C#N)c1
inactive: viability, T/C [1] 76.8% | viability, T/C [2] 74.5% | viability, T/C [3] 46.7% | viability, T/C [4] 44.8% | viability, T/C [5] 38.6% | viability, T/C [6] 29.6% | viability, T/C [7] 112% | viability, T/C [8] 70.1% | viability, T/C [9] 48.3% | viability, T/C [10] 45.5% | viability, T/C [11] 41.8% | viability, T/C [12] 29.1% | viability, T/C [13] 70.8% | viability, T/C [14] 66.1% | viability, T/C [15] 59% | viability, T/C [16] 55% | viability, T/C [17] 40% | viability, T/C [18] 26.7% | viability, T/C [19] 83.4% | viability, T/C [20] 59.4% | viability, T/C [21] 47% | viability, T/C [22] 52.7% | viability, T/C [23] 37.3% | viability, T/C [24] 33% | viability, T/C [25] 87.1% | viability, T/C [26] 70.9% | viability, T/C [27] 55.5% | viability, T/C [28] 40.9% | viability, T/C [29] 32.1% | viability, T/C [30] 25.7% | viability, T/C [31] 85.9% | viability, T/C [32] 59.4% | viability, T/C [33] 58.4% | viability, T/C [34] 36.7% | viability, T/C [35] 34.2% | viability, T/C [36] 23.6%
1.29 µM: IC50 (second compound 0.316 µM)
0.356 µM: IC50 (second compound 0.1 µM)
0.346 µM: IC50 (second compound 1 µM)
0.483 µM: IC50 (second compound 3.16 µM)
0.287 µM: IC50 (second compound 0.0316 µM)
0.379 µM: IC50 (second compound 10 µM)

Cn1ncnc1[C@H]1c2n[nH]c(=O)c3cc(F)cc(c23)N[C@@H]1c1ccc(F)cc1 + Cc1cccc(N(C)C(=O)C2C(O)CCN2c2nc(C)cc(C(F)(F)F)c2C#N)c1
> 0.1 µM: IC50 (second compound 0.0316 µM) | IC50 (second compound 0.1 µM) | IC50 (second compound 0.316 µM) | IC50 (second compound 1 µM) | IC50 (second compound 3.16 µM) | IC50 (second compound 10 µM)
inactive: viability, T/C (second compound 0.0316 µM, first compound 0.000316 µM) 100% | viability, T/C (second compound 0.0316 µM, first compound 0.001 µM) 83.6% | viability, T/C (second compound 0.0316 µM, first compound 0.00316 µM) 86.1% | viability, T/C (second compound 0.0316 µM, first compound 0.01 µM) 84.9% | viability, T/C [1] 81.5% | viability, T/C [2] 73.8% | viability, T/C (second compound 0.1 µM, first compound 0.000316 µM) 91.2% | viability, T/C (second compound 0.1 µM, first compound 0.001 µM) 82.4% | viability, T/C (second compound 0.1 µM, first compound 0.00316 µM) 83.6% | viability, T/C (second compound 0.1 µM, first compound 0.01 µM) 82.5% | viability, T/C [7] 73.7% | viability, T/C [8] 78.8% | viability, T/C (second compound 0.316 µM, first compound 0.000316 µM) 86.9% | viability, T/C (second compound 0.316 µM, first compound 0.001 µM) 81.2% | viability, T/C (second compound 0.316 µM, first compound 0.00316 µM) 92.9% | viability, T/C (second compound 0.316 µM, first compound 0.01 µM) 73.4% | viability, T/C [13] 64.9% | viability, T/C [14] 65.3% | viability, T/C (second compound 1 µM, first compound 0.000316 µM) 103% | viability, T/C (second compound 1 µM, first compound 0.001 µM) 101% | viability, T/C (second compound 1 µM, first compound 0.00316 µM) 70.3% | viability, T/C (second compound 1 µM, first compound 0.01 µM) 77.2% | viability, T/C [19] 85.1% | viability, T/C [20] 68.1% | viability, T/C (second compound 3.16 µM, first compound 0.000316 µM) 73.5% | viability, T/C (second compound 3.16 µM, first compound 0.001 µM) 97.5% | viability, T/C (second compound 3.16 µM, first compound 0.00316 µM) 91% | viability, T/C (second compound 3.16 µM, first compound 0.01 µM) 67.5% | viability, T/C [25] 74.1% | viability, T/C [26] 76.8% | viability, T/C (second compound 10 µM, first compound 0.000316 µM) 87.9% | viability, T/C (second compound 10 µM, first compound 0.001 µM) 84.2% | viability, T/C (second compound 10 µM, first compound 0.00316 µM) 77.3% | viability, T/C (second compound 10 µM, first compound 0.01 µM) 80% | viability, T/C [31] 72.7% | viability, T/C [32] 75.7%
